Reference: paper PMC7059139, “Inhibiting MARSs reduces hyperhomocysteinemia‐associated neural tube and congenital heart defects” (EMBO Molecular Medicine, 2020)
pIC50: −log10 of the molar value.

Tests used:
MARS2 = target: T1, MARS2 (Mus musculus, UniProt Q499X9); experiment: in vitro HTL production from Hcy ([…]), thin layer chromatography; assay type: biochemical
T1 construct: Flag-tagged, cDNA NM_175439.3
T1 sequence (Q499X9 47-586): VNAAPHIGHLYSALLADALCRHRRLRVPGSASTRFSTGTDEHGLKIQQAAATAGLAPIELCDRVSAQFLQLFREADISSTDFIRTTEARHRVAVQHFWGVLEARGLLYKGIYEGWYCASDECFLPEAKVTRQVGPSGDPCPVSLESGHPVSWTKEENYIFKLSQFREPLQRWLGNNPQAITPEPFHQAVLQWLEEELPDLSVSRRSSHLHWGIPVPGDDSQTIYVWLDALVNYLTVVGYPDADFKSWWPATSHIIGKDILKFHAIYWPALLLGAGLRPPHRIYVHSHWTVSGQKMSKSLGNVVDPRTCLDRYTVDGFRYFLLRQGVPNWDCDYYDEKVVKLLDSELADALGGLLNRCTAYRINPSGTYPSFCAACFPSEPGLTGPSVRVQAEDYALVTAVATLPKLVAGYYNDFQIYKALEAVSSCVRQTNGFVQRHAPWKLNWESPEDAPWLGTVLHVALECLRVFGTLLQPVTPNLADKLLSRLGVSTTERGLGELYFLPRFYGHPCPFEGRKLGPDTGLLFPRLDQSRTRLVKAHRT

[1] = target: T2, MARS (methionyl-tRNA synthetase) (Homo sapiens, UniProt P56192); experiment: as above; assay type: biochemical
T2 construct: gene MARS1; Flag-tagged, cDNA NM_004990.3
T2 sequence (P56192 1-900): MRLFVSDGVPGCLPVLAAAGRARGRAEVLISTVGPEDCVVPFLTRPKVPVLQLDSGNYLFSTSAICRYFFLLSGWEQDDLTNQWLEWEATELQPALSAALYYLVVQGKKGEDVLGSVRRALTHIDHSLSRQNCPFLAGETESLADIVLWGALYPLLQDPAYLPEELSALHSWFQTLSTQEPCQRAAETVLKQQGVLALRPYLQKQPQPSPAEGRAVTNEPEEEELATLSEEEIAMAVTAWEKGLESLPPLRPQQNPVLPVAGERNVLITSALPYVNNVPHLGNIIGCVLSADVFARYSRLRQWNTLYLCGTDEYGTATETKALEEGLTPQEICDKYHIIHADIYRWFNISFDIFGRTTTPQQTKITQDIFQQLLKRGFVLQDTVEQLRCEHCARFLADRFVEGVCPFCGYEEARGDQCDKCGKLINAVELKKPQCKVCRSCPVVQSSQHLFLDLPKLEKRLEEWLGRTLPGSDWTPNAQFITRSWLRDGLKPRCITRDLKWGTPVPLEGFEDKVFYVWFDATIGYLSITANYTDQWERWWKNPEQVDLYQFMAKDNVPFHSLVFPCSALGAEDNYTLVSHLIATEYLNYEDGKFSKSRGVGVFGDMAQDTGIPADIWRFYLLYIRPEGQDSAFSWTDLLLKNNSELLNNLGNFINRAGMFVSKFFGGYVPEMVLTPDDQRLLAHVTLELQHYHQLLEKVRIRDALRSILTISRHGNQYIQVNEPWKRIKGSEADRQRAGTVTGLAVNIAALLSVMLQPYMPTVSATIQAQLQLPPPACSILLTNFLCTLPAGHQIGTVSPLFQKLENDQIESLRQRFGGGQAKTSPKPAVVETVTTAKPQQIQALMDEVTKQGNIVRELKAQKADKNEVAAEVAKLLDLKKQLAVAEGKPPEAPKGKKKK

- pIC50 (MARS2): 4.40
- pIC50 [1]: 4.44
Structure (SMILES): NC(=O)CSCCC(N)C(=O)O (racemic) [compound 5, AHT]
